Assay results published in patent publication US20170157055A1, “PHAR[…] DETERRENT COMPOSITION” (priority 2014, published 2017).
Read-outs that look alike come from different tables or passages of the source.

Protocol: 350 mg of potassium bicarbonate equivalent to single dosage unit was added in beaker 1 while of potassium bicarbonate equivalent to three dosage units were added in beaker 2.

**Q.** With `O=C([O-])O.[K+]` [potassium bicarbonate] as the compound, how does the “pH of media after addition” value (beaker 1: 350 mg (single dosage unit) in 900 ml 0.01N HCl (initial pH 1.90)) read?
**A.** 2.30

**Q.** And the “pH of media after addition” value (beaker 2: equivalent to three dosage units in 900 ml 0.01N HCl (initial pH 1.90))?
**A.** 6.15
